According to patent US20250075248A1, “SYSTEMS, METHODS, AND DEVICES FOR ANTIMICROBIAL SUSCEPTIBILITY TESTING” (Deepull Diagnostics S.L., priority 2022, published 2025):
≈ marks a conversion by molar mass, not a printed value.

Assays:
Assay type in all cases: cell-based
[1] = tested on: Escherichia coli resistant (ATCC700891); experiment: Fast (1 hour) high dose detection of resistant bacteria by fluorescence microscopy
Procedure: (§1) To rapidly detect high resistant bacteria to a particular antimicrobial agent, bacteria were grown during a short period of time (1 hour) in the presence of high dose of that antimicrobial agent. Two strains of Escherichia coli, one susceptible (ATCC25922) and the other resistant (ATCC700891) to ampicillin were grown until an exponential phase in culture media. Bacteria cultures were diluted in culture media (Mueller Hinton cation adjusted broth) and were incubated at a final concentration of 2×10^4 CFU/mL during 1 hour at 37° C. in the presence of ampicillin at a final concentration of 128 mg/L, 64 mg/L, and 32 mg/L in a final volume of 10 μL. Three replicates were performed for each antibiotic concentration.
(§2) Samples were visualized at time 0 that represents bacteria before any incubation and after 1 hour incubation. 5 μL of each sample were transferred to a 384-well plate with flat polystyrene film bottom and incubated with fluorescence dyes (SYBR Green and Propidium Iodide) during 10 minutes at room temperature in the dark. The 384-well plate was centrifuged during 1 minute at 3000 g in a swinging-bucket movement and observed in an inverted fluorescence microscope. For each sample a composite image covering the bottom of each well was constructed. Images were analyzed with a custom software to count bacteria, detect filamentous bacteria, counts red bacteria, and record the brightness of bacteria. These images are illustrated in FIG. 26A.

[2] = tested on: Escherichia coli susceptible (ATCC25922); experiment: as above
Procedure: as §1, §2

[3] = tested on: Escherichia coli resistant (ATCC700891); experiment: Broth microdilution method MIC; conditions: E. coli ATCC700891, read-out: MIC according to broth microdilution method
[4] = tested on: Escherichia coli susceptible (ATCC25922); experiment: Broth microdilution method MIC; conditions: E. coli ATCC25922, read-out: MIC according to broth microdilution method
[5] = 128 mg/L, 64 mg/L and 32 mg/L, 1 hour at 37° C.

CC1(C)S[C@@H]2[C@H](NC(=O)[C@H](N)c3ccccc3)C(=O)N2[C@H]1C(=O)O [ampicillin, Ampicillin]
bacterial growth after 1 hour incubation [1, 5]: showed growth | filamentous or red bacteria after 1 hour incubation ([1]; all three tested concentrations (128, 64, 32 mg/L)): without presence of filamentous bacteria or red bacteria | bacterial growth after 1 hour incubation [2, 5]: does not grow | red (Propidium Iodide, dead) bacteria after 1 hour incubation ([2]; at 128 mg/L): presence of red bacteria | bacterial morphology after 1 hour incubation ([2]; in the three concentrations tested (128, 64, 32 mg/L)): filamentous form | MIC [3]: ≥ 128 µg/mL | MIC [4]: 4 µg/mL (≈ 11.4 µM)
